In patent publication US11331290B2, “Niclosamide for the treatment of cancer metastasis” (Max-Delbrück-Centrum für Molekulare Medizin in der …, priority 2011, dated 2022):
pEC50: −log10 of the molar value.

Tests used:
HCT116-S100A4 cells [1] = experiment: Boyden chamber transwell migration assay; format: cell-based, human; conditions: 1 μM, 24 h, statistically not significant
Method: (§1) HCT116, SW620, LS174T, SW480 and DLD-1 cells were used in cell migration and invasion analysis performed with Boyden chamber assay. 400 μL containing 2.5×10^5 cells were seeded into each transwell chamber with filter membranes of 12.0 μm pore size (Millipore, Schwalbach, Germany). For invasion filter membranes were coated with 50 μL Matrigel (diluted 1:3 in RPMI-1640; BD Biosciences) 10 minutes before cells were seeded. Fresh medium (600 μL) were added to the bottom chamber and cells were allowed to attach to the insets for 15 hours. Both chambers were treated with 1 μM niclosamide or the respective amount of DMSO and incubated at 37° C. and 5% CO2 in a humidified incubator for 24 hours. Afterwards insets were removed and cells that had migrated through the membrane to the lower chamber were trypsinized and counted in a Neubauer chamber (LO-Laboroptik, Bad Homburg, Germany). Each well was counted ten times. Each migration or invasion experiment was performed in duplicate. The average number of migrated or invaded cells was determined for at least three independent experiments.
(§2) (A) Cell migration of HCT116-vector and HCT116-S100A4 cells exposed to niclosamide treatment. Cells were treated with 1 μM niclosamide for 24 hours and migration rates were measured with Boyden chamber assay. (B) Cell invasion of HCT116-vector and HCT116-S100A4 cells exposed to niclosamide treatment. Cells were treated with 1 μM niclosamide for 24 hours and cell invasion was determined by Boyden chamber assay. (C) Directed migration of HCT116-vector and HCT116-S100A4 cells exposed to niclosamide treatment analyzed by wound healing assay. Wounds of 300 μM width were set in a 60% confluent monolayer of HCT116-vector or HCT116-S100A4 cells on day 1. Cells were treated daily with 1 μM niclosamide for 4 days. Microphotographs of day 4 are presented here with black lines indicating margins of entered wound of day 1; scale bar represents 200 μM. Data represents three independent experiments. (D) Adhesive cell proliferation of HCT116-vector and HCT116-S100A4 cells exposed to niclosamide treatment. Cells were treated daily with 1 μM niclosamide and cell viability was determined with MTT assay. (E) Anchorage-independent cell growth of HCT116-vector and HCT116-S100A4 cells exposed to niclosamide treatment. Cells were plated as single cells into 0.33% (w/v) agarose and treatment (solvent or 1 μM niclosamide) containing medium. After 7 days colonies were visualized by light microscopy at 10× (overview) and 40× (single colony) magnification. (F) Quantification of colonies formed. Number of colonies (of more than 4 cells) was counted and normalized to solvent-treated HCT116-vector cells. Differences of niclosamide vs. solvent-treated cells were analyzed by Student's t test. […]

HCT116-vector cells [2] = experiment: Boyden chamber transwell migration assay; format: cell-based, human; conditions: 24 h
Method: as §1, §2

HCT116 cells = experiment: Cytotoxicity (cell viability) of niclosamide; format: cell-based; conditions: Homo sapiens, HCT-116, 24 h, 95% CI 1.87 to 2.92 μM
Method: To determine an applicable niclosamide concentration, the cytotoxicity of niclosamide on HCT116 cells was analyzed. […] No change in S100A4 expression could be detected with concentrations below 1 μM niclosamide.
All calculations and statistical analyses were performed with GraphPad Prism version 4.01. Student t test was used for comparison of only two groups. One-way analysis of variance (ANOVA) was applied for comparing the control group with several treated groups followed by Bonferroni post hoc multiple comparisons. […] Kaplan-Meier analysis was used to plot overall survival and differences in curves were analyzed by Logrank test. […]
(A) Determination of the cytotoxicity of niclosamide on HCT116 cells. Cells were treated with increasing concentrations of niclosamide for 24 hours and cell viability was measured. […] S100A4 expression was determined by quantitative reverse-transcription-polymerase chain reaction (qRT-PCR) and immunoblot. […] HCT116 cells were treated with a single dose of 1 μM niclosamide for 24 hours and S100A4 expression was analyzed by qRT-PCR and immunoblot at indicated time points. […] HCT116 cells were treated daily with 1 μM niclosamide and S100A4 expression was analyzed by qRT-PCR and immunoblot. […]

HCT116-S100A4 cells [3] = experiment: Boyden chamber invasion assay (Matrigel); format: cell-based, human; conditions: 1 μM, 24 h, statistically not significant
Method: as §1, §2

HCT116-vector cells [4] = experiment: Boyden chamber invasion assay (Matrigel); format: cell-based, human; conditions: 24 h
Method: as §1, §2

O=C(Nc1ccc([N+](=O)[O-])cc1Cl)c1cc(Cl)ccc1O [niclosamide, 2′,5-dichloro-4′-nitrosalicylanilide]
migration rate, mean % (HCT116-S100A4 cells [1]; solvent control 145.0%): 117.0% | migration, mean difference control vs niclosamide (HCT116-S100A4 cells [1]): 28% | migration, mean difference control vs niclosamide (HCT116-vector cells [2]; 1 μM): 57.0% | activity at 1 µM (HCT116-vector cells [2]; Homo sapiens, read-out: number of migrated cells, mean % of control): 43% | pEC50 (HCT116 cells): 5.66 | invasion rate, mean % (HCT116-S100A4 cells [3]; solvent control 111.4%): 122.5% | invasion, mean difference control vs niclosamide (HCT116-S100A4 cells [3]): −11.1% | invasion, mean difference control vs niclosamide (HCT116-vector cells [4]; 1 μM): 69.9% | activity at 1 µM (HCT116-vector cells [4]; Homo sapiens, read-out: number of invaded cells, mean % of control): 30.1%
